Data taken from paper PMC6440584 (Eurosurveillance, 2019).

Experiments:
[1] = system: influenza A(H3N2) virus A/YOKOHAMA/87/2019 (PA I38T); assay type: cell-based
[2] = system: influenza A(H3N2) virus A/YOKOHAMA/88/2019 (PA I38T); assay type: cell-based
[3] = biological target: neuraminidase (NA) of influenza A(H3N2) virus A/YOKOHAMA/87/2019 (Influenza A virus, UniProt A0A193ACB1); assay type: biochemical
[4] = biological target: neuraminidase (NA) of influenza A(H3N2) virus A/YOKOHAMA/88/2019 (Influenza A virus, UniProt A0A193ACB1); assay type: biochemical

For `O=C1c2c(O)c(=O)ccn2N([C@@H]2c3ccccc3SCc3c2ccc(F)c3F)[C@@H]2COCCN12` [Baloxavir, baloxavir acid], which IC50 [1] is on record?
The IC50 was […].

And the “fold higher IC50 compared with the median IC50 of A(H3N2) viruses of the 2018/19 season” value [1]?
The value was […].

And the IC50 [2]?
The IC50 was […].

Which results are given for `CCC(CC)[C@H](NC(C)=O)[C@@H]1[C@H](O)[C@@H](C(=O)O)C[C@H]1N=C(N)N` [Peramivir, peramivir]?
IC50 [3]: 0.16 nM; IC50 [4]: 0.13 nM
